According to the NIST ThermoML archive (doi:10.1016/j.fluid.2012.11.013):

Conditions: Liquid, Vibrating tube method

CCC(C)CC [3-methylpentane]
mass density [kg/m3]
Conditions | 283.15 K | 288.15 K | 293.15 K | 298.15 K | 303.15 K | 308.15 K | 313.15 K | 318.15 K | 323.15 K | 328.15 K
100 kPa | 673.34 | 668.91 | 664.28 | 659.73 | 655.07 | 650.44 | 645.7 | 640.93 | 636.14 | 631.22
2000 kPa | 675.33 | 670.93 | 666.4 | 661.91 | 657.33 | 652.85 | 648.1 | 643.46 | 638.83 | 634.03
5000 kPa | 678.2 | 673.95 | 669.49 | 665.13 | 660.71 | 656.28 | 651.77 | 647.27 | 642.73 | 638.2
7000 kPa | 680.08 | 675.9 | 671.54 | 667.22 | 662.86 | 658.61 | 654.13 | 649.71 | 645.26 | 640.84
10000 kPa | 682.8 | 678.66 | 674.41 | 670.25 | 666 | 661.77 | 657.53 | 653.27 | 648.88 | 644.64
20000 kPa | 691.21 | 687.28 | 683.39 | 679.53 | 675.49 | 671.68 | 667.66 | 663.74 | 659.72 | 655.85
30000 kPa | 698.81 | 695.19 | 691.45 | 687.73 | 683.96 | 680.42 | 676.56 | 672.89 | 669.28 | 665.6
40000 kPa | 705.94 | 702.32 | 698.72 | 695.4 | 691.63 | 688.33 | 684.59 | 681.17 | 677.73 | 674.39
50000 kPa | 712.39 | 708.77 | 705.44 | 702.25 | 698.64 | 695.51 | 692.01 | 688.56 | 685.39 | 682.22
60000 kPa | 718.5 | 715.04 | 711.72 | 708.63 | 705.24 | 702.1 | 698.74 | 695.68 | 692.42 | 689.42
65000 kPa | 721.33 | 718.14 | 714.81 | 711.62 | 708.41 | 705.28 | 702.04 | 699.05 | 695.87 | 692.79
